From paper PMC5515971, “Utility of spherical human liver microtissues for prediction of clinical drug-induced liver injury” (Archives of Toxicology, 2017)
Read-outs that look alike come from different tables or passages of the source.

Assays:
[1] = tested on: 3D human liver microtissues (hLiMT); assay: Cytotoxicity (cellular ATP) in 3D human liver microtissues, 5-6 days treatment; assay type: cell-based; conditions: Homo sapiens; hLiMT, 5/6 days, ATP content; read-out: IC50 SHORT;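 note: Hanging-drop spheroids, seven-point dilution series, re-dosed on day 3, CellTiter-Glo 2.0 luminescence, normalized to 0.5 or 1% DMSO vehicle controls on the same plate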
[2] = tested on: 3D human liver microtissues (hLiMT); assay: Cytotoxicity (cellular ATP, CellTiter-Glo 2.0) in 3D human liver microtissues, 14 day repeat-dose treatment; conditions: for IC50: Homo sapiens, 336 h
[3] = ref Chen et al 2016 / Chen et al 2011; cited from earlier work
[4] = cited from earlier work; for DILI category: clinical, from literature and product labels
[5] = tested on: primary human hepatocytes (PHH); assay: Cytotoxicity (cellular ATP, CellTiter-Glo) in 2D plated primary human hepatocytes, 48 h treatment; assay type: cell-based; conditions: for IC50: Hepatocyte, 2D primary human hepatocytes (lot IZT), 48 h treatment, total cellular ATP content, read-out: Geomean IC50;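 for all read-outs here: 384-well plates, luminescence read-out, normalized to vehicle wells with 1% DMSO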
Protocol: Cryopreserved PHH (lot IZT) were thawed in InVitroGro HT™ thawing media at 37 °C, pelleted, and resuspended. Viable hepatocytes were counted by Trypan blue exclusion and plated in black-walled, BioCoat™ collagen 384-well plates at 13,000 cells/well in InVitroGro CP™ plating media supplemented with 1% Torpedo™ Antibiotic Mix and 5% fetal bovine serum and incubated overnight for 18 h. Cells were then treated with compounds for 48 h diluted in InVitroGro HI™ incubation media containing 1% Torpedo Antibiotic Mix, 10% fetal bovine serum, and 1% DMSO. […] Luminescence was determined on an EnVision™ Muliplate Reader (PerkinElmer, Waltham, MA, USA), and data were normalized to vehicle (1% DMSO) control wells.

[6] = cited from earlier work
[7] = Hepatocyte, read-out: Geomean IC50 [µM]
[8] = Table 1, ref Garside et al. (2014)
[9] = clinical DILI severity category, 1-5
[10] = table S-4, ref Garside et al. 2014
[11] = human Cmax total, used for IC50/Cmax
[12] = human total plasma Cmax, ref literature values

CC(C)c1c(C(=O)Nc2ccccc2)c(-c2ccccc2)c(-c2ccc(F)cc2)n1CC[C@@H](O)C[C@@H](O)CC(=O)O [Atorvastatin]
IC50 [1]: 70.7 µM
IC50 [2, 7]: 6 µM

COc1ccccc1Oc1c(NS(=O)(=O)c2ccc(C(C)(C)C)cc2)nc(-c2ncccn2)nc1OCCO [Bosentan]
FDA DILI Classification DILI severity score [3]: 7
LTKB DILI classification [3]: most DILI concern
DILI severity category [4, 8]: 1: Severe clinical DILI (N = 23)
DILI severity category [4, 9]: 1. Severe Clinical DILI
DILI category ([4]; ref Garside et al. 2014): 1. Severe Clinical DILI
DILI severity category [4, 10]: 1
IC50 [1]: 100 µM
IC50 ([2]; read-out: IC50 LONG): 93 µM
IC50 [2, 7]: ~93 µM
IC50 [5]: > 200 µM
cytotoxicity IC50 detected ([5]; PHH 48 h, in words): no IC50 values were detected

CN(C)CCC(c1ccc(Cl)cc1)c1ccccn1 (stereo not shown) [Chlorpheniramine]
FDA DILI Classification DILI severity score [3]: 0
LTKB DILI classification [3]: no DILI concern
DILI severity category [4, 8]: 3: Low clinical DILI concern (N = 23)
DILI severity category [4, 9]: 3. Low Clinical DILI Concern
DILI category ([4]; ref Garside et al. 2014): 3. Low Clinical DILI Concern
DILI severity category [4, 10]: 3
Cmax [6, 11]: 0.044 µM
Cmax [6, 12]: 0.0437 µM
IC50 [1]: 100 µM

O=C1CN(/N=C/c2ccc(-c3ccc([N+](=O)[O-])cc3)o2)C(O)=N1 [Dantrolene]
FDA DILI Classification DILI severity score [3]: 8
LTKB DILI classification [3]: most DILI concern
DILI severity category [4, 8]: 1: Severe clinical DILI (N = 23)
DILI severity category [4, 9]: 1. Severe Clinical DILI
DILI category ([4]; ref Garside et al. 2014): 1. Severe Clinical DILI
Cmax [6, 11]: 3.95 µM
Cmax [6, 12]: 3.95 µM
IC50 [2, 7]: > 100 µM
IC50 [5]: > 100 µM

O=C1[C@H](CC[C@H](O)c2ccc(F)cc2)[C@@H](c2ccc(O)cc2)N1c1ccc(F)cc1 [Ezetimibe]
DILI severity category [4, 10]: 3
IC50 [1]: 45.6 µM
IC50 ([2]; read-out: IC50 LONG): 45.5 µM

NC(=O)OCC(COC(N)=O)c1ccccc1 [Felbamate]
FDA DILI Classification DILI severity score [3]: 7
LTKB DILI classification [3]: most DILI concern
DILI severity category [4, 8]: 1: Severe clinical DILI (N = 23)
DILI severity category [4, 9]: 1. Severe Clinical DILI
DILI category ([4]; ref Garside et al. 2014): 1. Severe Clinical DILI
Cmax [6, 11]: 399 µM
Cmax [6, 12]: 399 µM
IC50 [2, 7]: > 100 µM
IC50 [5]: > 100 µM

COc1ccc2c(c1)c(CC(=O)O)c(C)n2C(=O)c1ccc(Cl)cc1 [Indomethacin]
Cmax [6, 11]: 8.4 µM
Cmax [6, 12]: 8.38 µM
IC50 [1]: 100 µM
IC50 [2, 7]: > 100 µM
IC50 [5]: > 100 µM

CCC(C)n1ncn(-c2ccc(N3CCN(c4ccc(OCC5COC(Cn6cncn6)(c6ccc(Cl)cc6Cl)O5)cc4)CC3)cc2)c1=O (stereo not shown) [Itraconazole]
FDA DILI Classification DILI severity score [3]: 8
LTKB DILI classification [3]: most DILI concern
DILI severity category [4, 8]: 2: High clinical DILI concern (N = 23)
DILI severity category [4, 9]: 2. High Clinical DILI Concern
DILI category ([4]; ref Garside et al. 2014): 2. High Clinical DILI Concern
Cmax [6, 11]: 2.8 µM
Cmax [6, 12]: 2.83 µM
IC50 [2, 7]: 1.6 µM
IC50 [5]: > 25 µM

CS(=O)(=O)CCNCc1ccc(-c2ccc3ncnc(Nc4ccc(OCc5cccc(F)c5)c(Cl)c4)c3c2)o1 [Lapatinib]
FDA DILI Classification DILI severity score [3]: 8
LTKB DILI classification [3]: most DILI concern
DILI severity category [4, 8]: 1: Severe clinical DILI (N = 23)
DILI severity category [4, 9]: 1. Severe Clinical DILI
DILI category ([4]; ref Garside et al. 2014): 1. Severe Clinical DILI
Cmax [6, 11]: 19 µM
Cmax [6, 12]: 19 µM
IC50 [2, 7]: ~27.3 µM
IC50 [5]: 33.3 µM

Cc1cnc(NC(=O)C2=C(O)c3ccccc3S(=O)(=O)N2C)s1 [Meloxicam]
Cmax [6, 11]: 5.21 µM
Cmax [6, 12]: 5.21 µM
IC50 [1]: 100 µM
IC50 [2, 7]: > 100 µM
IC50 [5]: > 100 µM

CN1C[C@H](CNC(=O)OCc2ccccc2)C[C@@H]2c3cccc4c3c(cn4C)C[C@H]21 [Metergoline]
Cmax [6, 11]: 0.07 µM
Cmax [6, 12]: 0.07 µM
IC50 [1]: 12.3 µM
IC50 [2, 7]: 7.8 µM
classification at 100 μM IC50 threshold ([2]; hLiMT 14 days): false positives
IC50 [5]: 20.1 µM
classification at 100 μM IC50 threshold ([5]; PHH 48 h): false positives

COc1ccc2cc([C@H](C)C(=O)O)ccc2c1 [Naproxen]
IC50 [1]: 100 µM
